In patent publication US7763602B2, “Pyrrole derivatives as antimycobacterial compounds” (priority 2002, dated 2010):
Converted amounts (≈) assume the structure as drawn.

Key:
Type in all cases: cell-based, Mycobacterium tuberculosis
[1] = system: M. tuberculosis H37Rv ATCC 27294; test: In vitro growth inhibition assay, BACTEC 460 TB system; design: key: +: If ΔGI of test vial is less than that of the control vial the culture was sensitive to the test compound; settings: final concentration 6.25 μg/ml
[2] = system: M. tuberculosis clinical isolates, sensitive; test: microbe, parasite or virus in culture; settings: for MIC (μg/ml) against Clinical isolates Sensitive: Table I, agar dilution; for MIC: Mycobacterium tuberculosis, read-out: MIC (μg/ml) against Clinical isolates Sensitive
M. tuberculosis 27294 = test: In vitro agar dilution assay (MIC), reference strain; settings: for MIC (μg/ml) against M. tuberculosis-27294: Table I; for MIC: Mycobacterium tuberculosis, 27294, Table I, read-out: MIC (μg/ml) against M. tuberculosis-27294

SMILES: Cc1cc(CN2CCN(c3cccc(C(F)(F)F)c3)CC2)c(-c2ccccc2)n1NC(=O)c1ccncc1 [Compound No. 23, N-(3-{[4-(3-trifluoromethylphenyl)piperazinyl]methyl}-5-methyl-2-phenylpyrrolyl)-4-pyridylcarboxamide]
- Growth inhibition of M. tuberculosis 27294 [1]: +
- MIC (μg/ml) against Clinical isolates Sensitive [2]: 0.25 to 1.0 µg/mL
- MIC (μg/ml) against M. tuberculosis-27294 (M. tuberculosis 27294): 0.25 µg/mL (≈ 0.481 µM)

SMILES: Cc1c(CN2CCN(C(c3ccccc3)c3ccccc3)CC2)cc(-c2ccccc2)n1NC(=O)c1cnccn1 [compound 30, N-(3-{[4-(diphenylmethyl)piperazinyl]methyl}-2-methyl-5-phenylpyrrolyl)-pyrazin-2-ylcarboxamide]
- Growth inhibition of M. tuberculosis 27294 [1]: +
- MIC (μg/ml) against Clinical isolates Sensitive [2]: 2.0 to 4.0 µg/mL
- MIC (μg/ml) against M. tuberculosis-27294 (M. tuberculosis 27294): 2.0 µg/mL (≈ 3.69 µM)

SMILES: Cc1cc(CN2CCN(Cc3ccc4c(c3)OCO4)CC2)c(-c2ccccc2)n1NC(=O)c1cnccn1 [compound 35, N-(3-{[4-(2H-benzo[3,4-d]1,3-dioxolan-5-ylmethyl)piperazinyl]methyl}-5-methyl-2-phenylpyrrolyl)pyrazin-2-ylcarboxamide]
- Growth inhibition of M. tuberculosis 27294 [1]: +
- MIC (μg/ml) against Clinical isolates Sensitive [2]: >16.0 µg/mL
- MIC (μg/ml) against M. tuberculosis-27294 (M. tuberculosis 27294): >16.0 µg/mL

SMILES: Cc1c(CN2CCN(c3ccccn3)CC2)cc(-c2ccc(Cl)cc2)n1-c1cccc2ccccc12 [compound 61, 1-{[5-(4-chlorophenyl)-2-methyl-1-naphthylpyrrol-3-yl]methyl}-4-(2-pyridyl) piperazine]
- Growth inhibition of M. tuberculosis 27294 [1]: +
- MIC (μg/ml) against Clinical isolates Sensitive [2]: 4.0 to 8.0 µg/mL
- MIC (μg/ml) against M. tuberculosis-27294 (M. tuberculosis 27294): 4.0 µg/mL (≈ 8.11 µM)

SMILES: Cc1c(CN2CCN(c3ccccn3)CC2)cc(-c2ccc(Cl)cc2)n1-c1ccc(Cl)cc1 [compound 4, 1-{[1,5-bis(4-chlorophenyl)-2-methylpyrrol-3-yl]methyl}-4-(2-pyridyl) piperazine]
- Growth inhibition of M. tuberculosis 27294 [1]: +
- MIC [2]: 0.25 to 1 µg/mL (≈ 0.524 to 2.09 µM)
- MIC (M. tuberculosis 27294): 0.5 µg/mL (≈ 1.05 µM)

SMILES: Cc1cc(CN2CCN(c3ccccn3)CC2)c(-c2ccccc2)n1-c1ccc(F)cc1F [compound 58, 1-{[1-(2,4-difluorophenyl)-5-methyl-2-phenylpyrrol-3-yl]methyl}-4-(2-pyridyl) piperazine]
- Growth inhibition of M. tuberculosis 27294 [1]: +
- MIC [2]: 8 µg/mL (≈ 18 µM)
- MIC (M. tuberculosis 27294): 8 µg/mL (≈ 18 µM)

SMILES: Cc1cc(CN2CCN(c3cccc(C(F)(F)F)c3)CC2)c(-c2ccccc2)n1NC(=O)c1cnccn1 [compound 33, N-(3-{[4-(3-trifluoromethylphenyl)piperazinyl]methyl}-5-methyl-2-phenylpyrrolyl)pyrazin-2-ylcarboxamide]
- Growth inhibition of M. tuberculosis 27294 [1]: +
- MIC (μg/ml) against Clinical isolates Sensitive [2]: 2.0 to 8.0 µg/mL
- MIC (μg/ml) against M. tuberculosis-27294 (M. tuberculosis 27294): 2.0 µg/mL (≈ 3.84 µM)

SMILES: Cc1c(CN2CCS(=O)(=O)CC2)cc(-c2ccccc2)n1-c1ccccc1 [compound 88]
- Growth inhibition of M. tuberculosis 27294 [1]: +
- MIC (μg/ml) against Clinical isolates Sensitive [2]: 1.0 to 4.0 µg/mL
- MIC (μg/ml) against M. tuberculosis-27294 (M. tuberculosis 27294): 0.5 µg/mL (≈ 1.31 µM)

SMILES: Cc1c(CN2CCN(C(c3ccccc3)c3ccccc3)CC2)cc(-c2ccc(Cl)cc2)n1-c1ccc(F)cc1F [compound 48, 1-{[1-(2,4-difluorophenyl)-5-(4-chlorophenyl)-2-methylpyrrol-3-yl]methyl}-4-(4-diphenylmethyl)piperazine]
- Growth inhibition of M. tuberculosis 27294 [1]: +
- MIC (μg/ml) against Clinical isolates Sensitive [2]: >16.0 µg/mL
- MIC (μg/ml) against M. tuberculosis-27294 (M. tuberculosis 27294): >16.0 µg/mL

SMILES: Cc1c(CN2CCN(c3cccc(C(F)(F)F)c3)CC2)cc(-c2ccc(Cl)cc2)n1-c1ccc(F)cc1F [compound 46, 1-{[1-(2,4-difluorophenyl)-5-(4-chlorophenyl)-2-methylpyrrol-3-yl]methyl}-4-(3-trifluoromethylphenyl)piperazine]
- Growth inhibition of M. tuberculosis 27294 [1]: +
- MIC [2]: 2 to 4 µg/mL (≈ 3.66 to 7.33 µM)
- MIC (M. tuberculosis 27294): 2 µg/mL (≈ 3.66 µM)

SMILES: Cc1c(CN2CCSCC2)cc(-c2ccccc2)n1NC(=O)c1ccncc1 [compound 21, N-[2-methyl-5-phenyl-3-(1,4-thiazaperhydroin-4-ylmethyl)pyrrolyl]-4-pyridyl carboxamide]
- Growth inhibition of M. tuberculosis 27294 [1]: +
- MIC (μg/ml) against Clinical isolates Sensitive [2]: 0.5 to 1.0 µg/mL
- MIC (μg/ml) against M. tuberculosis-27294 (M. tuberculosis 27294): 0.5 µg/mL (≈ 1.27 µM)
